Read-outs that look alike come from different tables or passages of the source.

Assay [1] has as its target Rho-A (Homo sapiens, UniProt P61586). As to the kind of experiment: Ras GTP binding domain inhibition assay (labeled-GTP competition, cell-free). On the set-up: made in house. From the text:
(§1) This is a competitive binding assay. It involves the immobilization of a protein on solid phase, interaction with a small molecule drug candidate, and then competitive binding with a labeled native GTP or GDP ligand.
(§2) In theory, the assay is suitable for use with any GTP or GDP binding protein.
(§3) The following method was developed as specific assay for the following proteins: KRas wild type, KRas Q61H mutant, KRas G12C mutant, KRas G12D mutant, Rac-1, and Rho-A.
(§4) The small GTPases proteins: KRas wild type. KRas Q61H mutant, KRas G12C mutant, KRas G12D mutants, Rac-1, and Rho-A were expressed as His-tagged proteins. In addition, the Guanosine nucleotide Exchange Factor (GEF) Sos protein (residues 556-1049) was expressed as a His-tagged protein. In cells, the guanine nucleotide exchange factor Sos protein promotes activation of Ras proteins by stimulating an exchange of GDP for GTP. The inclusion of Sos to the Ras GTP binding domain inhibition assay may be considered as an alternative representation of physiological cellular conditions for evaluating the inhibitory activity of some of the tested small molecules.
(§5) For the assay, all purified small GTPases proteins were diluted in Buffer-I or Buffer-II to a final concentration of 10-30 μg/mL. 200 μL of each diluted protein was added to a nickel-coated 96-well plate and incubated overnight at 4° C. Then the protein solution was discarded and 200 μL of Buffer-I or Buffer-II was added to each well in the presence of 1% DMSO. Compounds to be tested were added to the protein-coated wells at final concentration of 20 μM, and incubated for 3 hours at room temperature with and without 10-30 μg/mL of Sos added to the final hour of the incubation. When performing IC50 measurements a serial dilution of all tested concentrations was added. Then Cy3-GTP or Cy5-GTP was added to each well to a final concentration of 100 nM. The labeled GTP was incubated for 45 minutes at room temperature. Following GTP incubation, wells were washed 3× in Buffer-I or Buffer-II and 200 μL of Buffer-I or Buffer-II was added to each well. Following washes, the amount of bound labeled-GTP was measured using a SpectraMax M3 (Molecular Devices).

Assay [2] deals with KRas wild type (Homo sapiens, UniProt P01116). The assay is described as above. On the set-up: made in house.
Description: as §1, §2, §3, §4, §5

For assay [3], the target named is Rac-1 (Homo sapiens, UniProt P63000). The description is as above. On the set-up: made in house.
Description: as §1, §2, §3, §4, §5

Assay [4] has as its system Akt phosphorylation in Panc-1 cells. As to the kind of experiment: Western AKT cell-based phosphorylation assay. Details: species or system human. As to conditions: at 10 μM, values in brackets < > are activation %, not inhibition. The protocol: Human Tumor-Derived Pancreatic Cancer Cell Line Panc-1 was Purchased from
American Type Culture Collection and grown in complete DMEM-High Glucose supplemented with penicillin (100 U/mL), streptomycin (100 μg/mL), and 10% heat-inactivated FBS at 37° C. in a humidified incubator with 5% CO2.
Method: Cells were plated at 350000 cells/well density in a 12-well plate, allowed 3 hours to adhere to the plate, then starved in the appropriate medium in the presence of 0.5% FBS overnight. The small molecules to be tested were added to the cells in the final concentration of 10 μM in the presence of 0.3% DMSO for 6 hours incubation at 37° C. Next, cells were stimulated with 1.5 ng/ml EGF for 15 minutes then cells were lysed with lysis buffer containing 1% Triton X-100, EDTA, and Halt™ Protease & Phosphatase Inhibitor Cocktail (Thermo Scientific). Protein concentration was assessed by BCA protein assay (Thermo Scientific). Phosphorylation level of Akt was determined by western blot.
Western blot protocol: Equal amounts of protein (15-50 μg) were separated by SDS-PAGE and transferred to nitrocellulose membranes (Invitrogen by Thermo Fisher Scientific). The membrane was stained with Ponceau S Stain (Boston BioProducts) to verify uniform protein loading. Membranes were blocked with 10% milk and phosphorylation levels of Akt were assessed by incubating overnight at 4° C. with anti-phospho-Akt (Ser473) antibody (Cell Signaling) followed by HRP-conjugated secondary antibody (Jackson Immunoresearch, West Grove, Pa.). Bands were incubated in Amersham ECL Prime Western Blotting Detection Reagent (GE Healthcare) and visualized using the ChemiDoc MP imaging system (Bio-Rad).

In assay [5] the target is T1, KRas Q61H mutant (Homo sapiens, UniProt P01116, Q61H).
T1 construct: made in house
As to the kind of experiment: Ras GTP binding domain inhibition assay (labeled-GTP competition, cell-free).
Description: as §1, §2, §3, §4, §5

The target of assay [6] is T2, KRas G12D mutant (Homo sapiens, UniProt P01116, G12D).
T2 construct: made in house
The assay is described as above.
Description: as §1, §2, §3, §4, §5

Assay [7] has as its target T3, KRas G12C mutant (Homo sapiens, UniProt P01116, G12C).
T3 construct: made in house
The description is as above.
Description: as §1, §2, §3, §4, §5

Setting [8] is: with SOS, read-out: Rho-A + SOS: % inh.
[9] abbreviates: without SOS, read-out: Rho-A: % inh.
Setting [10] is: with SOS, read-out: KRas wild type + SOS: % inh.
Setting [11] is: without SOS, read-out: KRas wild type: % inh.
Where [12] appears, read: with SOS, read-out: Rac-1 + SOS: % inh.
[13] abbreviates: without SOS, read-out: Rac-1: % inh.
Setting [14] is: with SOS, read-out: KRas Q61H mutant + SOS: % inh.
Where [15] appears, read: without SOS, read-out: KRas Q61H mutant: % inh.
The mark [16] stands for this setting: with SOS, read-out: KRas G12D mutant + SOS: % inh.
Setting [17] is: without SOS, read-out: KRas G12D mutant: % inh.
Setting [18] is: with SOS, read-out: KRas G12C mutant + SOS: % inh.
Where [19] appears, read: without SOS, read-out: KRas G12C mutant: % inh.

As a reminder, the IC50 is the concentration needed to halve the response being measured. Consider `COCCn1ccnc1-c1nc(N[C@@H]2CC[C@H](OC)C2)c2c(-c3ccccc3)c(-c3ccn(C)n3)sc2n1` (racemic) [Compound 6, Rac-N-((1R,3S)-3-methoxycyclopentyl)-2-(1-(2-methoxyethyl)-1H-imidazol-2-yl)-6-(1-methyl-1H-pyrazol-3-yl)-5-phenylthieno[2,3-d]pyrimidin-4-amine], for which the inhibition at 20 µM in assay [1] (setting [8]), in assay [1] (setting [9]), in assay [2] (setting [10]), in assay [2] (setting [11]), in assay [3] (setting [12]) and in assay [3] (setting [13]) was 76 to 100% in each case. Besides, the inhibition at 20 µM in assay [5] (setting [14]), in assay [5] (setting [15]), in assay [6] (setting [16]), in assay [6] (setting [17]), in assay [7] (setting [18]) and in assay [7] (setting [19]) was 76 to 100% each time. Besides, the “% inh of AKT phosphorylation in PANC-1” value in assay [4] is recorded as 0 (0% inhibition). In addition, in assay [5] (with SOS), the IC50 was 1 to 4.99 µM.
`COCCn1ccnc1-c1nc(N[C@@H]2CC[C@H](OC)C2)c2ccsc2n1` (racemic) [Compound 8, Rac-N-((1R,3S)-3-methoxycyclopentyl)-2-(1-(2-methoxyethyl)-1H-imidazol-2-yl)thieno[2,3-d]pyrimidin-4-amine]: the inhibition at 20 µM in assay [1] (setting [8]), in assay [1] (setting [9]), in assay [2] (setting [10]), in assay [2] (setting [11]), in assay [3] (setting [12]) and in assay [3] (setting [13]) was 76 to 100% in each case. Besides, the inhibition at 20 µM in assay [5] (setting [14]), in assay [5] (setting [15]), in assay [6] (setting [16]), in assay [6] (setting [17]), in assay [7] (setting [18]) and in assay [7] (setting [19]) was 76 to 100% throughout. For the same compound, in assay [4], the “% inh of AKT phosphorylation in PANC-1” value was 0 (0% inhibition). Further, the IC50 in assay [5] (with SOS) lay within 1 to 4.99 µM.
Regarding `CO[C@H]1CC[C@@H](Nc2nc(-c3nccn3C)nc3sccc23)C1` (racemic) [Compound 10, Rac-N-((1R,3S)-3-methoxycyclopentyl)-2-(1-methyl-1H-imidazol-2-yl)thieno[2,3-d]pyrimidin-4-amine], the inhibition at 20 µM was 76 to 100% in assay [1] (setting [8]); 76 to 100% in assay [1] (setting [9]); 76 to 100% in assay [2] (setting [10]); 51 to 75% in assay [2] (setting [11]); 76 to 100% in assay [3] (setting [12]); 76 to 100% in assay [3] (setting [13]). The inhibition at 20 µM in assay [5] (setting [14]) lay within 76 to 100%; in assay [5] (setting [15]), 51 to 75%; in assay [6] (setting [16]) it was 51 to 75%; in assay [6] (setting [17]), 51 to 75%; in assay [7] (setting [18]) it was 76 to 100%; in assay [7] (setting [19]) it was 76 to 100%. Also, the “% inh of AKT phosphorylation in PANC-1” value in assay [4] is on record as 0 (0% inhibition). For the same compound, in assay [5] (with SOS), the half-maximal inhibitory concentration (IC50) was 5 to 10 µM.
`CO[C@H]1CC[C@@H](Nc2nc(C(N)=O)nc3sccc23)C1` (racemic) [Compound 11, Rac-4-(((1R,3S)-3-methoxycyclopentyl)amino)thieno[2,3-d]pyrimidine-2-carboxamide]: the inhibition at 20 µM in assay [1] (setting [8]) was 1 to 25%; in assay [1] (setting [9]) it was 1 to 25%; in assay [2] (setting [10]), 1 to 25%; in assay [2] (setting [11]), 0%; in assay [3] (setting [12]) it was 0%; in assay [3] (setting [13]), 0%. Also, the inhibition at 20 µM in assay [5] (setting [14]) is 0%; in assay [5] (setting [15]), 0%; in assay [6] (setting [16]) it was 0%; in assay [6] (setting [17]), 1 to 25%; in assay [7] (setting [18]) it was 1 to 25%; in assay [7] (setting [19]), 1 to 25%. Further, the “% inh of AKT phosphorylation in PANC-1” value in assay [4] was 0 (0% inhibition). In assay [5] (with SOS), the IC50 was over 10 µM.
Consider `CO[C@H]1CC[C@@H](Nc2nc(C(=O)N3CCOCC3)nc3sccc23)C1` (racemic) [Compound 12, Rac-(4-(((1R,3S)-3-methoxycyclopentyl)amino)thieno[2,3-d]pyrimidin-2-yl)(morpholino)methanone], for which the inhibition at 20 µM in assay [1] (setting [8]) is 1 to 25%; in assay [1] (setting [9]) it was 1 to 25%; in assay [2] (setting [10]), 1 to 25%; in assay [2] (setting [11]) it was 0%; in assay [3] (setting [12]), 1 to 25%; in assay [3] (setting [13]) it was 0%. Further, the inhibition at 20 µM in assay [5] (setting [14]) was 0%; in assay [5] (setting [15]) it was 1 to 25%; in assay [6] (setting [16]), 0%; in assay [6] (setting [17]), 1 to 25%; in assay [7] (setting [18]) it was 1 to 25%; in assay [7] (setting [19]), 1 to 25%. For the same compound, in assay [4], the “% inh of AKT phosphorylation in PANC-1” value is 0 (0% inhibition). In assay [5] (with SOS), the half-maximal inhibitory concentration (IC50) is over 10 µM.
With `Cc1c(-c2ccn(C(C)C)n2)sc2nc(-c3nccn3C)nc(NCc3n[nH]c(=O)n3C)c12` [Compound 60, 5-(((6-(1-Isopropyl-1H-pyrazol-3-yl)-5-methyl-2-(1-methyl-1H-imidazol-2-yl)thieno[2,3-d]pyrimidin-4-yl)amino)methyl)-4-methyl-2,4-dihydro-3H-1,2,4-triazol-3-one], the inhibition at 20 µM lay in the range of 76 to 100% in assay [1] (setting [9]); 51 to 75% in assay [2] (setting [10]); 51 to 75% in assay [2] (setting [11]); 51 to 75% in assay [3] (setting [13]); 51 to 75% in assay [5] (setting [14]); 51 to 75% in assay [5] (setting [15]). For the same compound, the inhibition at 20 µM in assay [7] (setting [18]) lay in the range of 51 to 75%; in assay [7] (setting [19]), 26 to 50%. Besides, the “% inh of AKT phosphorylation in PANC-1” value in assay [4] is listed as 0 (0% inhibition).
As to `COc1cccc(Nc2nc(-c3nccn3C)nc3sc(-c4ccn(C(C)C)n4)c(C)c23)c1` [Compound 64, 6-(1-Isopropyl-1H-pyrazol-3-yl)-N-(3-methoxyphenyl)-5-methyl-2-(1-methyl-1H-imidazol-2-yl)thieno[2,3-d]pyrimidin-4-amine], the inhibition at 20 µM is 26 to 50% in assay [1] (setting [9]); 76 to 100% in assay [2] (setting [10]); 0% in assay [2] (setting [11]); 26 to 50% in assay [3] (setting [13]); 76 to 100% in assay [5] (setting [14]); 26 to 50% in assay [5] (setting [15]). Further, the inhibition at 20 µM in assay [7] (setting [18]) was 76 to 100%; in assay [7] (setting [19]), 26 to 50%. Also, the “% inh of AKT phosphorylation in PANC-1” value in assay [4] is “B (26-50% inhibition)”.

These data come from patent publication US20230227466A1, “SUBSTITUTED THIENOPYRIMIDINES THAT INTERACT WITH THE RAS SUPERFAMILY FOR THE TREATMENT OF CANCERS, INFLAMMATORY DISEASES, RASOPATHIES, AND FIBROTIC DISEASE” (SHY Therapeutics, LLC, priority 2020, published 2023).
